Test results reported in BindingDB's records for doi:10.1021/jm030092d (Research Triangle Institute, 2003).

test: Inhibition of binding of [3H]DADLE to Opioid receptor delta 1 in guinea pig membranes

SMILES | Ki
C[C@H]1CN(CC[C@H](O)C2CCCCC2)CC[C@@]1(C)c1cccc(O)c1 [3-[1-(3-Cyclohexyl-3-hydroxy-propyl)-3,4-dimethyl-piperidin-4-yl]-phenol] | 198 nM
C[C@H]1CN(C/C=C/c2ccccc2)CC[C@@]1(C)c1cccc(O)c1 [3-[(3R,4R)-3,4-Dimethyl-1-((E)-3-phenyl-allyl)-piperidin-4-yl]-phenol] | 322 nM
C[C@H]1CN(C/C=C/c2ccccc2Cl)CC[C@@]1(C)c1cccc(O)c1 [3-{(3R,4R)-1-[(E)-3-(2-Chloro-phenyl)-allyl]-3,4-dimethyl-piperidin-4-yl}-phenol] | 168 nM
Cc1ccccc1/C=C/CN1CC[C@@](C)(c2cccc(O)c2)[C@@H](C)C1 [RTI-5989-25] | 142 nM
